Test results published in ChEMBL document CHEMBL1201862, “PubChem BioAssay data set” (2004).
The source made the active and inactive calls.

What was measured:
Cytochrome P450 2C19 = Cytochrome P450 2C19 (Homo sapiens, UniProt P33261); experiment: Cytochrome panel assay with activity outcomes. Panel member name: p450-cyp2c19 Compounds with AC50 equal or less than 10 uM are considered active; assay type: functional; details: read-out: AC50
Cytochrome P450 2C9 = Cytochrome P450 2C9 (Homo sapiens, UniProt P11712)
Sequence of Cytochrome P450 2C9 (P11712 whole entry): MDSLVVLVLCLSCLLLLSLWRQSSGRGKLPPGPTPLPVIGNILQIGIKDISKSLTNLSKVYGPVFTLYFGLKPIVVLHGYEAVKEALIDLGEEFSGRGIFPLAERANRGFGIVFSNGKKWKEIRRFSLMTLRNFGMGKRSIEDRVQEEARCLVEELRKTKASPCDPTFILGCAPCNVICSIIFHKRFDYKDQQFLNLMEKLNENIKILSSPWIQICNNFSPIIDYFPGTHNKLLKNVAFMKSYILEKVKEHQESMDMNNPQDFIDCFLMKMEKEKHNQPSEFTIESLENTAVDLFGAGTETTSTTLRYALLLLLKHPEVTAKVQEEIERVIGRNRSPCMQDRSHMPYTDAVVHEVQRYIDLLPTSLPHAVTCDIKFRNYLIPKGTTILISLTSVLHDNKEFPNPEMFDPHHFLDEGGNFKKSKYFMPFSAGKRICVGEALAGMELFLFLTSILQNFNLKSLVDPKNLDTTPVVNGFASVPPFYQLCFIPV

Cytochrome P450 2D6 = Cytochrome P450 2D6 (Homo sapiens, UniProt P10635);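 note: CYP2D6 member of a cytochrome P450 panel assay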
Sequence of Cytochrome P450 2D6 (P10635 whole entry): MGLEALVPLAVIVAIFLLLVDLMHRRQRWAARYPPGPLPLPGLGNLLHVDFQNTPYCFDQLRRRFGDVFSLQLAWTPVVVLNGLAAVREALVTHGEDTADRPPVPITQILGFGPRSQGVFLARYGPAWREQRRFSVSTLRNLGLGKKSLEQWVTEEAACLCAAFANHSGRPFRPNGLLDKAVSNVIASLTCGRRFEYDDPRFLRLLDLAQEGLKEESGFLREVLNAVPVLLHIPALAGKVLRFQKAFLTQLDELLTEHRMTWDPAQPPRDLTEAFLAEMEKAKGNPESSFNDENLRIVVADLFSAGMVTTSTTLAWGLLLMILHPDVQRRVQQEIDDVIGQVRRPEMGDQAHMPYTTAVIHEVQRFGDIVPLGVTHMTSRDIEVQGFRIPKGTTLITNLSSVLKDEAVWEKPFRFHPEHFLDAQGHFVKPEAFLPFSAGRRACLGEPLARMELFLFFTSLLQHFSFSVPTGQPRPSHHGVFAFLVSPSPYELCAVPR

Cytochrome P450 1A2 = target: T1, Cytochrome P450 1A2 (Homo sapiens, UniProt P05177);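 note: PubChem cytochrome P450 panel assay, CYP1A2 panel member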
T1 sequence (P05177 whole entry): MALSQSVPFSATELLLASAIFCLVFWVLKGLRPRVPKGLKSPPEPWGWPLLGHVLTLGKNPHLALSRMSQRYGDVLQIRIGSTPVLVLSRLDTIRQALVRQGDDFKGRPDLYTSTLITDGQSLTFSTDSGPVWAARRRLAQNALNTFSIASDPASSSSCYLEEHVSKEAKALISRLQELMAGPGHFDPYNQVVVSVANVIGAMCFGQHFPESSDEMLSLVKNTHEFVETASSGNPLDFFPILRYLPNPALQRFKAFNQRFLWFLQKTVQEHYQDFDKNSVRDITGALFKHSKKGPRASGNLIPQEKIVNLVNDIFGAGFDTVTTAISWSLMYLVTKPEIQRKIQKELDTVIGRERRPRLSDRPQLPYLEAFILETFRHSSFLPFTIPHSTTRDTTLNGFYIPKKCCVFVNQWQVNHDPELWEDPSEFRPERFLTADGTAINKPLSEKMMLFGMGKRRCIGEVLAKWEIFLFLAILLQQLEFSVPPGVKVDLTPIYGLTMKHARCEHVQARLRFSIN

INS1 = experiment: beta cell apoptosis inhibitors, cytokine rescue, dose response, luminescence, retest (AID 449756); assay type: functional, cell-based; details: Rattus norvegicus;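 note: cell death triggered by IL-1 beta plus TNF-alpha plus IFN-gamma mixture; protective hits raise ATP signal compared with cytokine alone wells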
[1] = target: T2, Corticotropin-releasing factor receptor 2/Corticotropin-releasing factor-binding protein (Homo sapiens, UniProt P24387+Q13324); experiment: activators of CRF receptor 2 with binding protein – uHTS hits, confirmation (AID 602473); assay type: functional; details: read-out: EC50_Mean
T2 sequence (Q13324 whole entry): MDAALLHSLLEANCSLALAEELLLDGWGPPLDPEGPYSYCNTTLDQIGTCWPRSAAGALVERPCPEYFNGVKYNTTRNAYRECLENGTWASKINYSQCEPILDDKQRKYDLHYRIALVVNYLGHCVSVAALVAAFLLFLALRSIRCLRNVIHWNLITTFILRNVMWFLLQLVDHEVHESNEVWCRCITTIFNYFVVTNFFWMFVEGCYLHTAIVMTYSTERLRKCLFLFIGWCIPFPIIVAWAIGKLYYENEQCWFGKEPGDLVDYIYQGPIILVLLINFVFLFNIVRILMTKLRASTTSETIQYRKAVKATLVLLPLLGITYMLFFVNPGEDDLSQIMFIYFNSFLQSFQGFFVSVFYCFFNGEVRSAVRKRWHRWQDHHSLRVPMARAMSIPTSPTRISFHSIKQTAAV
T2 sequence (P24387 whole entry): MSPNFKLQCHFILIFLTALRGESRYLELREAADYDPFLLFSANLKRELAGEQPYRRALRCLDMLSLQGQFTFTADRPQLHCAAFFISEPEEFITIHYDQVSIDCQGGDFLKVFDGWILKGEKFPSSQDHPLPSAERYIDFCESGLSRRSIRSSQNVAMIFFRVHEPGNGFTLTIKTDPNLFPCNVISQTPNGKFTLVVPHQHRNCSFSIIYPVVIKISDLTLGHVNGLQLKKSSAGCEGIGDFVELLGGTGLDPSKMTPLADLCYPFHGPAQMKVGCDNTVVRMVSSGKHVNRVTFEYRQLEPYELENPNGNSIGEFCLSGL

[2] = target: T3, RNA-binding protein pos-1 (Caenorhabditis elegans, UniProt G5EF15); experiment: inhibitors of POS-1/mex-3 RNA binding, dose response, biochemical, fluorescence polarization (AID 1964);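 note: purified POS-1 fused to maltose binding protein made in E. coli; potency of compounds blocking POS-1 binding to fluorescent RNA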
T3 sequence (G5EF15 whole entry): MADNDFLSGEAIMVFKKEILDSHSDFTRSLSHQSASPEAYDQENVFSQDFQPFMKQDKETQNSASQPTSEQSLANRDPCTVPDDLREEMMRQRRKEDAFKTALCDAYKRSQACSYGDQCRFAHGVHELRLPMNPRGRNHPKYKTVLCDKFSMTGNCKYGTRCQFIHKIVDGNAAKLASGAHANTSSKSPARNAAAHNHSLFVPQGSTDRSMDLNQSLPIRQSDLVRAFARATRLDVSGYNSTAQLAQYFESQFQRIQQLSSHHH

[3] = target: T4, Zinc finger protein mex-5 (Caenorhabditis elegans, UniProt Q9XUB2); experiment: MEX-5/TCR-2 RNA interaction inhibitors, dose response, biochemical, C. elegans, fluorescence polarization (AID 1960)
T4 sequence (Q9XUB2 whole entry): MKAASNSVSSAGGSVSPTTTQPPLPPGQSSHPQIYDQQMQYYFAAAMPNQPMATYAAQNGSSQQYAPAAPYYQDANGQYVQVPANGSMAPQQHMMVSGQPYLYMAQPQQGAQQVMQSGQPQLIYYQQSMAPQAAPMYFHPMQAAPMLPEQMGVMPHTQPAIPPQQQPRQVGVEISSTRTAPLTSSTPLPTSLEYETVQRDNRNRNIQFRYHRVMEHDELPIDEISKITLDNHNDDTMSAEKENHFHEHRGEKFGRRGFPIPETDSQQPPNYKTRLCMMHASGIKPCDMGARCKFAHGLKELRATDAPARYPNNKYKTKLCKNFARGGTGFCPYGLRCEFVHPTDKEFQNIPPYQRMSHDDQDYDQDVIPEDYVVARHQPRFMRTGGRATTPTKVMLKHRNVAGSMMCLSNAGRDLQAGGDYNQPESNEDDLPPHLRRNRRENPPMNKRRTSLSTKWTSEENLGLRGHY

Cytochrome P450 3A4 = Cytochrome P450 3A4 (Homo sapiens, UniProt P08684);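 note: CYP3A4 tested as one member of a cytochrome P450 panel screen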
Sequence of Cytochrome P450 3A4 (P08684 whole entry): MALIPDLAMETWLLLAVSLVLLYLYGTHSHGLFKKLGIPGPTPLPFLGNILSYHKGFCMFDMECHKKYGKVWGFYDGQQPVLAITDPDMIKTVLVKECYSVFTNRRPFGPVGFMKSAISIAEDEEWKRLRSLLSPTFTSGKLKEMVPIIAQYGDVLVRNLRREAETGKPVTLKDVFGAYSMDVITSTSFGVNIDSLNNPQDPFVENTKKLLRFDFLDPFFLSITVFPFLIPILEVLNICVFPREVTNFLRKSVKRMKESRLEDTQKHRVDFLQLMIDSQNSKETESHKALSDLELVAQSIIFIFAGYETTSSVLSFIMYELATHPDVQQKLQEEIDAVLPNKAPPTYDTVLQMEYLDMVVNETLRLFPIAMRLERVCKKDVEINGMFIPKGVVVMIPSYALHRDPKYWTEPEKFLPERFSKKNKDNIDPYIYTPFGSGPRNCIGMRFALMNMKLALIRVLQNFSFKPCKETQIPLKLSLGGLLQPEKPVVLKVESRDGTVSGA

Sequence of Cytochrome P450 2C19 (P33261 whole entry): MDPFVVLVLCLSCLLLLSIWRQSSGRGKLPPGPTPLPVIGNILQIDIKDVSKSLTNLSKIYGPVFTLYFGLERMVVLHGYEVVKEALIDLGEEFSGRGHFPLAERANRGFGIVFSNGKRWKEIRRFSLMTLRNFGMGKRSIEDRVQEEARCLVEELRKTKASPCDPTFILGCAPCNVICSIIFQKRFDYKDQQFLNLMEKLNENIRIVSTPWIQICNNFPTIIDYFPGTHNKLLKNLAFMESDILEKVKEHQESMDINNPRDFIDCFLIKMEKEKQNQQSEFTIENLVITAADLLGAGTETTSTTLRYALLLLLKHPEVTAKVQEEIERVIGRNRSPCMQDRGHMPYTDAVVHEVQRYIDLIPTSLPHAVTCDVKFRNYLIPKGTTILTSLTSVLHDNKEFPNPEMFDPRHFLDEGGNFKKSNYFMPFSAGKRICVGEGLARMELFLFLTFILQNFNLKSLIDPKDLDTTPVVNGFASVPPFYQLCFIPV

`O=C(O)Cc1ccc2c(c1)N(S(=O)(=O)c1cccc(C(F)(F)F)c1)CC(C(=O)O)O2` (centres undefined) was tested, and the AC50 (Cytochrome P450 2C19) was 25.1 µM (inconclusive) and the AC50 (Cytochrome P450 2C9) was 15.8 µM (inconclusive).

`CN(Cc1ccco1)c1cc(-c2cccc(NS(C)(=O)=O)c2)ncn1` was tested, and the AC50 (Cytochrome P450 2C19) was 31.6 µM (inconclusive) and the AC50 (Cytochrome P450 2D6) was 25.1 µM (inconclusive).

With `N#Cc1ccccc1-c1ccc2ncnc(NC3CC3)c2c1` the AC50 (Cytochrome P450 2C19) was 7.94 µM (inconclusive) and the AC50 (Cytochrome P450 2D6) was 39.8 µM (inconclusive).

For `CC(=O)c1c(O)c(C)c(O)c(Cc2c(O)c3c(c(C(=O)/C=C\c4ccccc4)c2O)OC(C)(C)C=C3)c1O`, the AC50 (Cytochrome P450 1A2) was 31.6 µM (inconclusive).

With `CNc1cnn(-c2ccccc2)c(=O)c1Cl` the AC50 (Cytochrome P450 2C9) was 1 µM (inconclusive) and the AC50 (Cytochrome P450 1A2) was 28.2 µM (inconclusive).

In the case of `OC(COc1ccc(OCC(O)CN2CCCCCC2)cc1)CN1CCCCCC1` (centres undefined), the AC50 (Cytochrome P450 2C19) is reported as 1.78 µM (inconclusive) and the AC50 (Cytochrome P450 2D6) is reported as 15.8 µM (inconclusive).

For `CC1=C(C(=O)Nc2ccccc2)C(c2ccco2)NC(S)=N1` (centres undefined), the AC50 (Cytochrome P450 2C9) was 12.6 µM (inconclusive).

`COc1cccc(C2NC(c3cccc(OC)c3O)C(C)C(=O)C2C)c1O` (centres undefined) was tested, and the AC50 (Cytochrome P450 2D6) was 7.94 µM (inconclusive) and the AC50 (Cytochrome P450 2C9) was 10 µM (inconclusive).

`Cc1ccc(-c2sc(-c3ccccc3)nc2CC(=O)Nc2ccccc2F)cc1` was tested, and the AC50 (INS1) was 2.27 µM (active) and the EC50 [1] was > 53 µM (inactive).

For `CCN1CCc2nc(NC(=O)c3ccc4c(c3)OCCO4)sc2C1`, the AC50 (Cytochrome P450 2C9) was 12.6 µM (inconclusive) and the AC50 (Cytochrome P450 1A2) was 3.16 µM (inconclusive).

With `CC(C)CCN1C(=O)c2ccc(-c3nc4ccccc4c(=O)o3)cc2C1=O` the AC50 (Cytochrome P450 2C9) was 3.16 µM (inconclusive) and the AC50 (Cytochrome P450 1A2) was 15.8 µM (inconclusive).

In the case of `COc1ncc2nc(CCc3ccccc3)c(=O)n(CCC#N)c2n1`, the AC50 (Cytochrome P450 2D6) is reported as 25.1 µM (inconclusive).

In the case of `Nc1nc(SCCc2ccccc2)c2nc[nH]c2n1`, the AC50 (Cytochrome P450 2D6) is reported as 3.98 µM (inconclusive) and the AC50 (Cytochrome P450 2C9) is reported as 3.98 µM (inconclusive).

`c1ccc(-c2cccc(N3CC4(CCNCC4)C3)c2)cc1` was tested, and the AC50 (Cytochrome P450 1A2) was 12.6 µM (inconclusive).

With `CCN1/C(=C2\SC(=S)N(Cc3ccccc3)C2=O)Sc2ccccc21` the EC50 [1] was > 53 µM (inactive).

In the case of `COc1cccc(OCc2nnc(SCC(=O)NCc3ccco3)n2C)c1`, the AC50 (Cytochrome P450 2C19) is reported as 25.1 µM (inconclusive) and the AC50 (Cytochrome P450 2C9) is reported as 15.8 µM (inconclusive).

With `Cc1noc(C)c1-c1ccc2ncnc(NCc3ccccc3)c2c1` the AC50 (Cytochrome P450 2D6) was 39.8 µM (inconclusive).

With `COc1ccc(NC(=O)CN(C)C(=O)CSc2ccc3c(c2)OCCO3)cc1` the EC50 [1] was > 53 µM (inactive).

In the case of `Cc1ccc(S(=O)(=O)N(CCCN2CCCC2=O)Cc2cc3c(C)ccc(C)c3[nH]c2=O)cc1`, the EC50 [2] is reported as > 300 µM (not active) and the EC50 [3] is reported as > 300 µM (not active).

With `N#Cc1cc(-c2ccc(Cl)cc2)cnc1Sc1ccc(F)cc1` the AC50 (Cytochrome P450 2C19) was 1 µM (inconclusive), the AC50 (Cytochrome P450 3A4) was 14.1 µM (inconclusive) and the AC50 (Cytochrome P450 2C9) was 7.94 µM (inconclusive).
